Values quoted from earlier work, collected in US4439425A, “Peptide derivatives” (Ciba-Geigy Corporation, priority 1979, dated 1984).

System: lymphocytes
Settings: Z. Immun.-Forschung 153, 11-22 (1977)

**Q.** For “murein lipoprotein: murein lipoprotein of the outer cell wall of Escherichia coli”, which “in vitro mitogenic activity” value is on record?
**A.** in vitro mitogenic activity towards some lymphocytes
